Measurements taken from patent US10653617B2, “Compositions of additives to ginger-curcumin to facilitate growth of fibroblasts and collagen” (priority 2016, dated 2020).

How the values were obtained:
Human dermal fibroblasts [1] = test: Fibroblast cytotoxicity assay; assay type: cell-based; settings: 72 hours; for growth-inhibition/cytotoxicity of the individual agent: agent tested individually over a wide range of concentrations; for concentration up to which non-toxic (all concentrations evaluated): agent tested individually, KBM, 1.5 mM calcium
Method: Human dermal fibroblasts were isolated from skin biopsies and grown in monolayer culture using DMEM supplemented with 10% fetal bovine serum as culture medium. Growth was at 37° C. in a humidified atmosphere containing 5% CO2 and 95% air. For experimental studies, cells were plated at 5×10^4 cells per well in wells of a 24-well culture dish in the same culture medium. One day later, cells were washed and the DMEM culture medium was replaced with KBM. Human dermal fibroblasts were treated with culture medium (KBM) supplemented with a concentration of calcium (1.5 mM) that supports fibroblast survival on its own. Reagents to be tested for cytotoxicity and/or growth inhibition were included in the culture medium and the cells incubated for 72 hours.

Human dermal fibroblasts [2] = settings: cited from earlier work

Compound | growth-inhibition/cytotoxicity of the individual agent (Human dermal fibroblasts [1]) | concentration up to which non-toxic (all concentrations evaluated) (Human dermal fibroblasts [1]) | other results
CS(C)(=O)=O [MSM, dimethyl sulfone] | levels that produced growth-inhibition/cytotoxicity were achieved | – | –
O=C1O[C@H]([C@@H](O)CO)C(O)=C1O [L-ascorbic acid] | – | up to 200 μg/mL | –
CC1=C(/C=C/C(C)=C/C=C/C(C)=C/C(=O)O)C(C)(C)CCC1 [ATRA, all-trans retinoic acid] | – | – | concentrations that are effective in this assay (Human dermal fibroblasts [2]): 1 to 10 µM
COc1cc(/C=C/C(=O)CC(=O)/C=C/c2ccc(O)c(OC)c2)ccc1O [curcumin] | levels that produced growth-inhibition/cytotoxicity were achieved | – | –
hyaluronan | – | ≤ 20 µg/mL | –
CCCCCCCCCCCCOS(=O)(=O)[O-].[Na+] [SLS, sodium lauryl sulfate] | levels that produced growth-inhibition/cytotoxicity were achieved | – | –
